These results are taken from patent publication US11578055B2, “Triazacyclododecansulfonamide (“TCD”)-based protein secretion inhibitors” (KEZAR LIFE SCIENCES, priority 2018, dated 2023).

In data set [1] the test system is PD1 signal sequence plus 10 amino acids fused to Gaussia Luciferase (PD1-ss+10aa/Gaussia Luciferase). Put plainly: Dox Induced PD1-ss-Gluc Assay. Type of data set: cell-based. To be noted: 24 hr, Dox inducible, 293FRT/TO cells; read-out: 24 hr Dox Inducible PD1ssGluc 293FRT/TO: Mean IC50. In a few lines:
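Compound dilutions in DMSO/media containing doxycycline were applied to a stable, inducible 293 T-REx line carrying the luciferase fusion, then incubated at 37 °C, 5% CO2. Where stereochemistry is not drawn, values relate to isomer mixtures.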

Data set [2] relates to full length TNFα (amino acids 1-233) fused to Gaussia Luciferase. Put plainly: Dox Induced TNFα-FL-Gluc Assay. The class given is cell-based. To be noted: 24 hr, Dox inducible, 293FRT/TO cells; read-out: 24 hr Dox Inducible TNFaFLGluc 293FRT/TO: Mean IC50. A digest of the protocol: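 Compounds diluted in DMSO/medium with doxycycline were incubated at 37° C, 5% CO2 with 293 T-REx cells stably carrying a Tet-regulated TNFα(1-233)-Gaussia luciferase construct. Data for structures drawn without stereochemistry refer to stereoisomer mixtures.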

For data set [3], the system named is full length IL-2 (amino acids 1-153) fused to Gaussia Luciferase. Put plainly: Dox Induced IL2-FL-Gluc Assay. The class given is cell-based. To be noted: 24 hr, Dox inducible, 293FRT/TO cells; read-out: 24 hr Dox Inducible IL2FLGluc 293FRT/TO: Mean IC50. A digest of the protocol: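 Compounds in DMSO/media with doxycycline were added to cells plated the previous day and incubated at 37° C, 5% CO2. Cells: stable Flp-In 293 T-REx line, Dox-regulated expression of IL-2 (aa 1-153) fused at its C-terminus to Gaussia luciferase.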

For data set [4], the system named is HER3 signal sequence plus 4 amino acids fused to Gaussia Luciferase (HER3-ss+4aa/Gaussia Luciferase). Put plainly: Dox Induced HER3-ss-Gluc Assay. The class given is cell-based. To be noted: 24 hr, doxycycline induced, Flp-In 293 T-REx cells; read-out: 24 hr Dox Inducible Her3(ss + 4) Gluc 293FRT/TO: Mean 1050. The text has this:
FIp-In 293 T-REx™ cells were transfected with pcDNA™5/FRT/TO plasmid inserted with cDNA encoding Gaussia Luciferase fused to the 3′ end of cDNA encoding HER3 signal sequence plus 4 amino acids (N-[…]-C) (SEQ ID NO: 2). Transfected cells were selected for resistance to the selectable markers Hygromycin and Blasticidin to create a stable cell line that contained the HER3-ss+4aa/Gaussia Luciferase cDNA insert whose expression was regulated under the T-REx™ system. The day before assay, cells were trypsinized and plated in 384-well tissue culture plates. The next day, compound dilutions in DMSO/media containing doxycycline were added to the wells and incubated at 37° C., 5% CO2.
For chemical structures that include one or more stereoisomers, but are illustrated without indicating stereochemistry, the assay data refers to a mixture of stereoisomers.

The test system of data set [5] is multiple myeloma cell line NCl-H929. Put plainly: H929 Cell Viability Assay. The class given is cell-based, human. The note with it: Homo sapiens, NCI-H929, 48 h, H929, Celltiter-Glo. A digest of the protocol:
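Viability was determined by CellTiter-Glo luminescence after a 48 h, 37 °C exposure of NCI-H929 cells to serial compound dilutions in medium containing 10% FBS. Where stereochemistry is not shown, values refer to a mix of stereoisomers.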
For orientation: Cellular ATP, detected with luciferase, serves as a proxy for viable cell number.

Data set [6] concerns multiple myeloma cell line U266B1. Put plainly: U266 Cell Viability Assay. Type of data set: cell-based, human. The note with it: Homo sapiens, U-266; 48 hr, U266, Celltiter-Glo. A digest of the protocol: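 Viability was measured by CellTiter-Glo luminescence after 48 h compound exposure at 37° C, 5% CO2. The cells were U266B1 multiple myeloma cells grown in RPMI 1640 plus 10% FBS. Where stereochemistry is not shown, values apply to the stereoisomer mixture.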

The nature of data set [7]: In Vitro Microsome Stability Assay (human). To be noted: human liver microsomes, 30 min w/ NADPH. Type of data set: in vitro ADME. In a few lines:
(§1)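 The value reported is the percentage of parent left after 30 min, calculated from analyte/IS peak-area ratios relative to time zero by LC-MS/MS. Incubations ran at 37° C in 0.1 M potassium phosphate with NADPH and microsomes (stock 20 mg/mL), with compound added from a 0.25 mM DMSO stock. Acetonitrile containing IS stopped the reactions.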

Data set [8] is described as follows: In Vitro Microsome Stability Assay (mouse). The class given is in vitro ADME. To be noted: mouse liver microsomes, 30 min w/ NADPH. In a few lines: as §1
For orientation: Liver microsomes are vesicles of endoplasmic reticulum, rich in cytochrome P450 enzymes.

A short description of data set [9]: In Vitro Microsome Stability Assay (rat). Type of data set: in vitro ADME. To be noted: rat liver microsomes, 30 min w/ NADPH. A digest of the protocol:
as §1

Data set [10] in a line: In Vitro Microsome Stability Assay (monkey). To be noted: monkey liver microsomes, 30 min w/ NADPH. Type of data set: in vitro ADME. A digest of the protocol: as §1

The term EC50 denotes the concentration at which the effect is half-maximal.

`C[C@@H]1CN(S(=O)(=O)NCc2ccccc2)CCCN(CC2CCCCC2)CCCN(S(=O)(=O)c2ccc(N(C)C)cc2)C1` [A187, (3S)-N-benzyl-9-(cyclohexylmethyl)-5-[4-(dimethylamino)benzenesulfonyl]-3-methyl-1,5,9-triazacyclododecane-1-sulfonamide]: the IC50 in [1] is 0.427 µM; in [2], 6.17 µM; in [3], 1.09 µM; in [4], 0.802 µM. For the same compound, the figures for the EC50 in data set [5] and in data set [6] were 3.87 µM and above 25 µM, respectively. For the same compound, in [7], the “Liver Microsome Stability-% Left after 30 min w/ NADPH (%) Human” value (from here on “Liver Microsome Stability-% Left … (%) Human”) worked out at 0.05%. Besides, the “Liver Microsome Stability-% Left after 30 min w/ NADPH (%) Mouse” value (“Liver Microsome Stability-% Left … (%) Mouse” below) in data set [8] is 0.03%. The “Liver Microsome Stability-% Left after 30 min w/ NADPH (%) Rat” value (shortened to “Liver Microsome Stability-% Left … (%) Rat”) in data set [9] was found to be 0.07%. The “Liver Microsome Stability-% Left after 30 min w/ NADPH (%) Monkey” value (shortened to “Liver Microsome Stability-% Left … (%) Monkey”) in data set [10] amounted to 0.15%.
As for `COc1cc(F)cc(N2CCN(S(=O)(=O)N3CCCN(CC4CCCCC4)CCCN(S(=O)(=O)c4ccc(N(C)C)cc4)CC4(CC4)C3)C[C@H]2C)c1` [A195], the IC50 is 0.211 µM in [1], 11.2 µM in data set [2], 0.668 µM in data set [3] and 0.382 µM in [4]. Further, the EC50 in data set [5] and in [6] was above 25 µM each time. Further, the “Liver Microsome Stability-% Left … (%) Human” value in data set [7] is listed as 53.6%. In data set [8], the “Liver Microsome Stability-% Left … (%) Mouse” value was found to be 58.5%. Besides, the “Liver Microsome Stability-% Left … (%) Rat” value in data set [9] worked out at 63.3%. Besides, in data set [10], the “Liver Microsome Stability-% Left … (%) Monkey” value came to 32.8%.
Take `C[C@H]1CN(S(=O)(=O)c2ccc(N(C)C)cc2)CCCN([C@@H](C)C2CCCCC2)CCCN(S(=O)(=O)N2CCc3cc(Cl)ccc3C2)C1` [A190, 4-{[(3S)-5-[(6-chloro-1,2,3,4-tetrahydroisoquinolin-2-yl)sulfonyl]-9-[(1 S)-1-cyclohexylethyl]-3-methyl-1,5,9-triazacyclododecan-1-yl]sulfonyl}-N,N-dimethylaniline]: the IC50 in [1] is 0.0162 µM; in data set [2], 0.295 µM; in data set [3], 0.0457 µM; in data set [4], 0.0356 µM. The EC50 in [5] is 0.867 µM; in data set [6] it was above 25 µM. Further, in data set [7], the “Liver Microsome Stability-% Left … (%) Human” value worked out at 74.1%. Besides, the “Liver Microsome Stability-% Left … (%) Mouse” value in data set [8] was found to be 69.3%. The “Liver Microsome Stability-% Left … (%) Rat” value in data set [9] was 85.3%. Besides, the “Liver Microsome Stability-% Left … (%) Monkey” value in [10] was determined as 71.6%.
`C[C@H]1CN(S(=O)(=O)c2ccc(N(C)C)cc2)CCCN(CC2CCC(F)CC2)CCCN(S(=O)(=O)N2CCc3cc(Cl)ccc3C2)C1` (stereo partly drawn) [A204, 4-{[(3S)-5-[(6-chloro-1,2,3,4-tetrahydroisoquinolin-2-yl)sulfonyl]-9-[(4-fluorocyclohexyl)methyl]-3-methyl-1,5,9-triazacyclododecan-1-yl]sulfonyl}-N,N-dimethylaniline]: the IC50 was 0.0584 µM in data set [1], 0.982 µM in data set [2], 0.158 µM in data set [3] and 0.134 µM in data set [4]. The EC50 in data set [5] is 1.49 µM; in [6], above 25 µM. Further, in data set [7], the “Liver Microsome Stability-% Left … (%) Human” value was 48.4%. The “Liver Microsome Stability-% Left … (%) Mouse” value in data set [8] turned out to be 62.6%. Also, the “Liver Microsome Stability-% Left … (%) Rat” value in data set [9] was 58.3%. The “Liver Microsome Stability-% Left … (%) Monkey” value in data set [10] was 49.7%.
As for `C[C@H]1CN(S(=O)(=O)c2ccc(N(C)C)cc2)CCCN(CC(C)(C)C)CCCN(S(=O)(=O)N2CCc3cc(Cl)ccc3C2)C1` [A107, 4-{[(3S)-5-[(6-chloro-1,2,3,4-tetrahydroisoquinolin-2-yl)sulfonyl]-9-(2,2-dimethylpropyl)-3-methyl-1,5,9-triazacyclododecan-1-yl]sulfonyl}-N,N-dimethylaniline], the IC50 in data set [1] was found to be 0.0261 µM; in data set [2], 0.609 µM; in data set [3], 0.073 µM; in data set [4], 0.0442 µM. Besides, the EC50 is 1.18 µM in data set [5] and above 25 µM in [6]. Besides, the “Liver Microsome Stability-% Left … (%) Human” value in data set [7] is reported as 83.9%. For the same compound, in data set [8], the “Liver Microsome Stability-% Left … (%) Mouse” value came out at 16.1%. Besides, the “Liver Microsome Stability-% Left … (%) Rat” value in [9] is 19.3%. Moreover, the “Liver Microsome Stability-% Left … (%) Monkey” value in data set [10] amounted to 25.0%.
As to `C[C@H]1CN(S(=O)(=O)c2ccc3c(ccn3C)c2)CCCN(CC2CCCCC2)CCCN(S(=O)(=O)N2CCc3cc(Cl)ccc3C2)C1` [A188, 6-chloro-2-{[(3S)-9-(cyclohexylmethyl)-3-methyl-5-[(1-methyl-1 H-indol-5-yl)sulfonyl]-1,5,9-triazacyclododecan-1-yl]sulfonyl}-1,2,3,4-tetrahydroisoquinoline], the IC50 in data set [1] came to 0.0389 µM; in data set [2], 0.714 µM; in data set [3] it was 0.0993 µM; in data set [4], 0.088 µM. Moreover, the EC50 in data set [5] was 1.56 µM; in data set [6], above 25 µM. Also, the “Liver Microsome Stability-% Left … (%) Human” value in [7] is 27%. The “Liver Microsome Stability-% Left … (%) Mouse” value in [8] came out at 4.48%. In addition, the “Liver Microsome Stability-% Left … (%) Rat” value in [9] amounted to 27.8%. In [10], the “Liver Microsome Stability-% Left … (%) Monkey” value turned out to be 12.4%.
Turning to `C[C@H]1CN(S(=O)(=O)c2ccc(N(C)C)cc2)CCCN(CCC2CC2)CCCN(S(=O)(=O)N2CCc3cc(Cl)ccc3C2)C1` [A122, 4-{[(3S)-5-[(6-chloro-1,2,3,4-tetrahydroisoquinolin-2-yl)sulfonyl]-9-(2-cyclopropylethyl)-3-methyl-1,5,9-triazacyclododecan-1-yl]sulfonyl}-N,N-dimethylaniline], the IC50 in data set [1] was 0.0519 µM; in data set [2], 0.885 µM; in data set [3] it was 0.135 µM; in data set [4], 0.111 µM. The results for the concentration giving a half-maximal response (EC50) in data set [5] and in [6] were 2.42 µM and above 25 µM, respectively. The “Liver Microsome Stability-% Left … (%) Human” value in [7] came out at 0.38%. In addition, in data set [8], the “Liver Microsome Stability-% Left … (%) Mouse” value is listed as 36.4%. Further, in [9], the “Liver Microsome Stability-% Left … (%) Rat” value came to 0.17%. Moreover, in [10], the “Liver Microsome Stability-% Left … (%) Monkey” value stood at 0.15%.
Regarding `C[C@H]1CN(S(=O)(=O)c2ccc(N(C)C)cc2)CCCN(CCC2CCCC2)CCCN(S(=O)(=O)N2CCc3cc(Cl)ccc3C2)C1` [A120, 4-{[(3S)-5-[(6-chloro-1,2,3,4-tetrahydroisoquinolin-2-yl)sulfonyl]-9-(2-cyclopentylethyl)-3-methyl-1,5,9-triazacyclododecan-1-yl]sulfonyl}-N,N-dimethylaniline], the IC50 in data set [1] stood at 0.0156 µM; in data set [2], 0.239 µM; in [3], 0.0273 µM; in data set [4], 0.0314 µM. Moreover, the figures for the concentration giving a half-maximal response (EC50) in [5] and in [6] were 0.672 µM and above 25 µM, respectively. Further, the “Liver Microsome Stability-% Left … (%) Human” value in data set [7] was determined as 4.78%. In addition, the “Liver Microsome Stability-% Left … (%) Mouse” value in [8] was 19.2%. Moreover, in data set [9], the “Liver Microsome Stability-% Left … (%) Rat” value turned out to be 28.5%. Besides, in data set [10], the “Liver Microsome Stability-% Left … (%) Monkey” value stood at 16.3%.
